From ChEMBL document CHEMBL2331547, “o-Benzenedisulfonimido-sulfonamides are potent inhibitors of the tumor-associated carbonic anhydrase isoforms CA IX and CA XII” (Bioorg Med Chem, 2013)

Target: Carbonic anhydrase 9 (Homo sapiens, UniProt Q16790)
Assay: Inhibition of human recombinant carbonic anhydrase-9-mediated CO2 hydration preincubated for 10 mins by stopped-flow assay

Row | Compound | Ki [µM]
1 | NS(=O)(=O)c1ccc(CCN2S(=O)(=O)c3ccccc3S2(=O)=O)cc1 | 0.086
2 | NS(=O)(=O)c1ccc(CN2S(=O)(=O)c3ccccc3S2(=O)=O)cc1 | 0.0498
3 | NS(=O)(=O)c1ccc(N2S(=O)(=O)c3ccccc3S2(=O)=O)cc1 | 0.0825

The remaining compounds from weak to strong by Ki, led by results:

Row | Ki [µM] | Compound
4 | 0.0669 | NS(=O)(=O)c1ccccc1N1S(=O)(=O)c2ccccc2S1(=O)=O
5 | 0.0322 | NS(=O)(=O)c1cccc(N2S(=O)(=O)c3ccccc3S2(=O)=O)c1
6 | 0.0171 | NS(=O)(=O)c1ccc(N2S(=O)(=O)c3ccccc3S2(=O)=O)c(Cl)c1
